#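 Tested at 5 concentrations; 48 h exposure; 96-well plates; endpoints linearly interpolated, else capped at highest concentration. The concentration for 50% growth inhibition is given as GI50.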 Activity calls are given as the source filed them. Cut-off read from the data, not from the text of the source: active = GI50 up to about 1.1 µM and inactive = higher.
# Columns and labels:
# Assay in all cases: NCI-60 cell line screen, 48 h
# [1] = test system: M14
# [2] = test system: BT-549
# [3] = test system: 786-0
# [4] = test system: SW-620
# [5] = test system: SK-MEL-2
# [6] = test system: MDA-N
# [7] = test system: OVCAR-8
# [8] = test system: CCRF-CEM
# [9] = test system: NCI-H23
# [10] = test system: SK-MEL-28
# [11] = test system: SN12C
# [12] = test system: MDA-MB-231
# [13] = test system: UACC-257
# [14] = test system: HOP-62
# [15] = test system: SF-539
# [16] = test system: DU-145
# [17] = test system: IGROV-1
# [18] = test system: OVCAR-4
# [19] = test system: RXF 393
# [20] = test system: U-251
# [21] = test system: SNB-75
# [22] = test system: TK-10
# [23] = test system: SK-MEL-5
# [24] = test system: HCT-15
# [25] = test system: Malme-3M
# [26] = test system: MDA-MB-435
# [27] = test system: HOP-92
# [28] = test system: HT-29
# [29] = test system: PC-3
# [30] = test system: HCT-116
# [31] = test system: T47D
# [32] = test system: NCI-H522
# [33] = test system: Hs-578T
# [34] = test system: A498
# [35] = test system: EKVX
# [36] = test system: NCI-H460
# [37] = test system: KM12
# [38] = test system: SF-268
# [39] = test system: HL-60
# [40] = test system: MCF7
# [41] = test system: SK-OV-3
# [42] = test system: UO-31
# [43] = test system: SNB-19
# [44] = test system: SF-295
# [45] = test system: ACHN
# [46] = test system: K562
# [47] = test system: UACC-62
# [48] = test system: OVCAR-3
# [49] = test system: RPMI-8226
# [50] = test system: LOX IMVI
# [51] = test system: CAKI-1
# [52] = test system: COLO 205
# [53] = test system: SR
# [54] = test system: MOLT-4
# [55] = test system: OVCAR-5
# [56] = test system: NCI/ADR-RES
# [57] = test system: NCI-H226
# [58] = test system: HCC 2998
# [59] = test system: A549
compound,measurement,setting,value
COc1cc2cc(C(=O)N3CC(CCl)c4ccc(N(C)C)cc43)[nH]c2c(OC)c1OC (stereo not drawn),GI50,[1],0.0923 µM (active)
same,GI50,[2],0.131 µM (active)
same,GI50,[3],0.0361 µM (active)
same,GI50,[4],0.12 µM (active)
same,GI50,[5],0.063 µM (active)
same,GI50,[6],0.185 µM (active)
same,GI50,[7],0.0989 µM (active)
same,GI50,[8],0.0547 µM (active)
same,GI50,[9],0.0303 µM (active)
same,GI50,[10],0.0556 µM (active)
same,GI50,[11],0.198 µM (active)
same,GI50,[12],0.234 µM (active)
same,GI50,[13],0.139 µM (active)
same,GI50,[14],0.128 µM (active)
same,GI50,[15],0.0559 µM (active)
same,GI50,[16],0.0333 µM (active)
same,GI50,[17],0.0601 µM (active)
same,GI50,[18],0.124 µM (active)
same,GI50,[19],0.0267 µM (active)
same,GI50,[20],0.0897 µM (active)
same,GI50,[21],0.29 µM (active)
same,GI50,[22],0.13 µM (active)
same,GI50,[23],0.131 µM (active)
same,GI50,[24],0.145 µM
same,GI50,[25],0.109 µM (active)
same,GI50,[26],0.168 µM (active)
same,GI50,[27],0.0861 µM (active)
same,GI50,[28],0.0817 µM (active)
same,GI50,[29],0.0676 µM (active)
same,GI50,[30],0.0542 µM (active)
same,GI50,[31],0.078 µM (active)
same,GI50,[32],0.0127 µM (active)
same,GI50,[33],0.294 µM (active)
same,GI50,[34],0.0153 µM (active)
same,GI50,[35],0.173 µM (active)
same,GI50,[36],0.0269 µM (active)
same,GI50,[37],0.127 µM (active)
same,GI50,[38],0.0678 µM (active)
same,GI50,[39],0.0277 µM (active)
same,GI50,[40],0.0207 µM (active)
same,GI50,[41],0.261 µM (active)
same,GI50,[42],0.0381 µM (active)
same,GI50,[43],0.304 µM (active)
same,GI50,[44],0.0589 µM (active)
same,GI50,[45],0.0199 µM (active)
same,GI50,[46],0.0675 µM (active)
same,GI50,[47],0.0592 µM (active)
same,GI50,[48],0.0959 µM (active)
same,GI50,[49],0.043 µM (active)
same,GI50,[50],0.0755 µM (active)
same,GI50,[51],0.0395 µM (active)
same,GI50,[52],0.0851 µM (active)
same,GI50,[53],0.0151 µM (active)
same,GI50,[54],0.048 µM (active)
same,GI50,[55],0.0853 µM (active)
same,GI50,[56],0.0449 µM (active)
same,GI50,[57],0.152 µM (active)
same,GI50,[58],0.0303 µM (active)
same,GI50,[59],0.0194 µM (active)
CC1(C)CCCCCC(C)(CCCCCCCCCCCO)C1=O (stereo not drawn),GI50,[2],18.9 µM (inactive)
same,GI50,[3],16.2 µM (inactive)
same,GI50,[4],18.4 µM (inactive)
same,GI50,[5],16.2 µM (inactive)
same,GI50,[6],17.9 µM (inactive)
same,GI50,[7],16.9 µM (inactive)
same,GI50,[8],13 µM (inactive)
same,GI50,[9],16.6 µM (inactive)
same,GI50,[10],17.9 µM (inactive)
same,GI50,[11],16.1 µM (inactive)
same,GI50,[12],16.3 µM (inactive)
same,GI50,[13],14 µM (inactive)
same,GI50,[14],17.7 µM (inactive)
same,GI50,[15],16.7 µM (inactive)
same,GI50,[16],17.7 µM (inactive)
same,GI50,[17],18.2 µM (inactive)
same,GI50,[18],15.5 µM (inactive)
same,GI50,[19],16.9 µM (inactive)
same,GI50,[20],17 µM (inactive)
same,GI50,[21],16.3 µM (inactive)
same,GI50,[22],12.1 µM (inactive)
same,GI50,[23],16.7 µM (inactive)
same,GI50,[24],16.1 µM
same,GI50,[25],16 µM (inactive)
same,GI50,[26],16.6 µM (inactive)
same,GI50,[27],17.3 µM (inactive)
same,GI50,[28],11.9 µM (inactive)
same,GI50,[29],16.1 µM (inactive)
same,GI50,[30],15.3 µM (inactive)
same,GI50,[31],14.6 µM (inactive)
same,GI50,[32],17.3 µM (inactive)
same,GI50,[33],16.3 µM (inactive)
same,GI50,[34],17.9 µM (inactive)
same,GI50,[35],17.6 µM (inactive)
same,GI50,[36],17.1 µM (inactive)
same,GI50,[37],18.1 µM (inactive)
same,GI50,[38],16.1 µM (inactive)
same,GI50,[39],14.7 µM (inactive)
same,GI50,[40],16.1 µM (inactive)
same,GI50,[41],17.6 µM (inactive)
same,GI50,[42],17 µM (inactive)
same,GI50,[43],17.2 µM (inactive)
same,GI50,[44],15.7 µM (inactive)
same,GI50,[45],12.8 µM (inactive)
same,GI50,[46],15.3 µM (inactive)
same,GI50,[47],15.5 µM (inactive)
same,GI50,[48],16 µM (inactive)
same,GI50,[49],20.9 µM (inactive)
same,GI50,[50],15.4 µM (inactive)
same,GI50,[51],15.1 µM (inactive)
same,GI50,[52],17.1 µM (inactive)
same,GI50,[53],1.41 µM (inactive)
same,GI50,[54],19.5 µM (inactive)
same,GI50,[55],17.2 µM (inactive)
same,GI50,[56],14 µM (inactive)
same,GI50,[57],17.1 µM (inactive)
same,GI50,[58],24.3 µM (inactive)
same,GI50,[59],15.1 µM (inactive)
CCCC1(NC(=O)C(F)(F)F)CC(OC)OC2COC(c3ccccc3)OC21 (stereo not drawn),GI50,[1],26.8 µM (inactive)
same,GI50,[2],58.6 µM (inactive)
same,GI50,[3],76.2 µM (inactive)
same,GI50,[4],53 µM (inactive)
same,GI50,[5],26.8 µM (inactive)
same,GI50,[6],59.4 µM (inactive)
same,GI50,[7],51.1 µM (inactive)
same,GI50,[8],66.4 µM (inactive)
same,GI50,[9],34.5 µM (inactive)
same,GI50,[10],> 100 µM (inactive)
same,GI50,[11],> 100 µM (inactive)
same,GI50,[12],95.1 µM (inactive)
same,GI50,[13],63.1 µM (inactive)
same,GI50,[14],> 100 µM (inactive)
same,GI50,[15],> 100 µM (inactive)
same,GI50,[16],79.3 µM (inactive)
same,GI50,[17],> 100 µM (inactive)
same,GI50,[18],6.25 µM (inactive)
same,GI50,[19],94.6 µM (inactive)
same,GI50,[20],46.7 µM (inactive)
same,GI50,[21],> 100 µM (inactive)
same,GI50,[23],16.9 µM (inactive)
same,GI50,[24],55.7 µM
same,GI50,[25],44.7 µM (inactive)
same,GI50,[26],18.1 µM (inactive)
same,GI50,[27],9.23 µM (inactive)
same,GI50,[29],32 µM (inactive)
same,GI50,[30],42.1 µM (inactive)
same,GI50,[31],59.4 µM (inactive)
same,GI50,[32],31.5 µM (inactive)
same,GI50,[33],> 100 µM (inactive)
same,GI50,[34],> 100 µM (inactive)
same,GI50,[35],36.3 µM (inactive)
same,GI50,[36],34 µM (inactive)
same,GI50,[38],> 100 µM (inactive)
same,GI50,[39],27.1 µM (inactive)
same,GI50,[40],30 µM (inactive)
same,GI50,[41],70 µM (inactive)
same,GI50,[42],35 µM (inactive)
same,GI50,[43],> 100 µM (inactive)
same,GI50,[44],50.7 µM (inactive)
same,GI50,[45],49.3 µM (inactive)
same,GI50,[46],35.3 µM (inactive)
same,GI50,[47],55.7 µM (inactive)
same,GI50,[48],> 100 µM (inactive)
same,GI50,[49],> 10 µM (inactive)
same,GI50,[50],64.9 µM (inactive)
same,GI50,[51],6.31 µM (inactive)
same,GI50,[52],21.1 µM (inactive)
same,GI50,[53],24.8 µM (inactive)
same,GI50,[54],26.2 µM (inactive)
same,GI50,[55],> 100 µM (inactive)
same,GI50,[56],29.3 µM (inactive)
same,GI50,[57],> 100 µM (inactive)
same,GI50,[58],52.2 µM (inactive)
same,GI50,[59],28.3 µM (inactive)
